# Test results: patent US11020405B2, “Method for prevention or treatment of diabetic complications” (KANGWON NATIONAL UNIVERSITY UNIVERSITY-INDUSTRY COOPERATION …, priority 2017, dated 2021)
# Test system: VE-cadherin
# Assay: Analysis of adherens junction (VE-cadherin staining)
# Type: cell-based, human
# Details: HRECs, 10 ng/mL VEGF 90 min with 20 μM midazolam, 5 μM BAPTA-AM, 1 mM NAC, 0.5 μM Trolox, 50 μM cystamine or 20 μM MDC (FIGS. 5, 6)
# Method: Purchased from Applied Cell Biology Research Institute (Cell Systems, Kirkland, Wash.), human retinal endothelial cells (HRECs) were cultured in an M19 medium, containing 20% FBS, 3 ng/mL bFGF, 5 U/mL heparin, 100 U/mL penicillin and […], in a 2% gelatin-coated plate.
# Before the following Test Examples 2 to 7, the HRECs were cultured for 6 hr in a medium containing 1% FBS and an antibiotic agent, thus preparing HRECs of Test Example 1.
# The HRECs of Test Example 1 were subjected to the respective treatments below and cultured for 30 min. Here, treatment with 10 ng/mL VEGF was performed for 90 min. Thereafter, the HRECs were treated with 1 mM 5-(biotinamido)pentylamine, incubated for 1 hr, fixed with 3.7% formaldehyde, treated with 0.2% triton X-100, treated with a blocking solution containing 138 mM NaCl, 0.1% Tween 20 and 2% BSA dissolved in a 20 mM Tris (pH 7.6) buffer, incubated for 30 min, incubated with a monoclonal VE-cadherin antibody (1:200; Santa Cruz Biotechnology) for 12 hr or more (overnight), incubated with a FITC-conjugated goat anti-mouse antibody (1:200; Sigma-Aldrich), and then measured using confocal microscopy. Some (the following i), iii), iv), vi), ix)) of the results are shown in FIG. 5 and the VE-cadherin concentrations in the portions represented by the dotted lines in FIG. 5 are shown in FIG. 6. With reference to FIG. 6, 10 randomly selected cells were measured to determine the fluorescence intensity of single cells and thus quantify VE-cadherin.
# VE-cadherin, which is a protein that mediates adherens junction, was analyzed to evaluate adherens junction.
smiles,measurement,value
Cc1ncc2n1-c1ccc(Cl)cc1C(c1ccccc1F)=NC2 [midazolam],VE-cadherin concentration / adherens junction disruption due to VEGF,exhibited the effect of preventing the adherens junction disruption due to VEGF
